Measured values taken from patent US20260200947A1, “FUSED CYCLIC COMPOUNDS AND USE THEREOF” (Jacobio Pharmaceuticals Co., Ltd., priority 2022, published 2026).

Molecular target: GDP-KRAS G12D (Homo sapiens, UniProt P01116, G12D)
Test: biochemical
Details: not given

Sequence of GDP-KRAS G12D (P01116 1-169 isoform P01116-2 G12D): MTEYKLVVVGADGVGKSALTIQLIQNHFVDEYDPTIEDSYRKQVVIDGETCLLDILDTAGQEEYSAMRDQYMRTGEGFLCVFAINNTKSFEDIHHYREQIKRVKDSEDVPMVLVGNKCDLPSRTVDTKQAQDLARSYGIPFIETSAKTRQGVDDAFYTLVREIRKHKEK

SMILES	IC50
[2H]C([2H])([2H])N1c2nc(-c3cc(N)cc4ccc(F)c(C#C)c34)c(F)c3nc(OC[C@@]45CCCN4C[C@H](F)C5)nc(c23)N2CCCOC[C@H]21 [Compound 48]	0.759 nM
C#Cc1c(F)ccc2cc(N)cc(-c3nc4c5c(nc(OC[C@@]67CCCN6C[C@H](F)C7)nc5c3F)N3CCCOCC3N4)c12 (stereo partly drawn) [Compound 113]	4.62 nM
C#Cc1c(F)ccc2cc(N)cc(-c3nc4c5c(nc(OC[C@@]67CCCN6C[C@H](F)C7)nc5c3F)N3CCCOCC3N4CCC(F)(F)F)c12 (stereo partly drawn) [Compound 104]	9.19 nM

System: SW620 cells (K-Ras G12V)
Test: Phospho-ERK1/2(THR202/TYR204) HTRF assay, SW620
Assay type: cell-based
Details: Homo sapiens, SW-620, 2 hours incubation, read-out: pERK, IC50, SW620

SMILES	IC50
[2H]C([2H])([2H])N1c2nc(-c3cc(N)cc4ccc(F)c(C#C)c34)c(F)c3nc(OC[C@@]45CCCN4C[C@H](F)C5)nc(c23)N2CCCOC[C@H]21 [Compound 48]	3.68 nM
C#Cc1c(F)ccc2cc(N)cc(-c3nc4c5c(nc(OC[C@@]67CCCN6C[C@H](F)C7)nc5c3F)N3CCCOCC3N4)c12 (stereo partly drawn) [Compound 113]	21.4 nM

System: Capan-2 cells (K-Ras G12V)
Test: not given
Details: not given

SMILES	IC50
CSc1cccc2cc(O)cc(-c3nc4c5c(nc(OC[C@@]67CCCN6C[C@H](F)C7)nc5c3F)N3CCCOC[C@H]3N4C)c12 [Compound 20]	10.3 nM
[2H]C([2H])([2H])N1c2nc(-c3cc(N)cc4ccc(F)c(C#C)c34)c(F)c3nc(OC[C@@]45CCCN4C[C@H](F)C5)nc(c23)N2CCCOC[C@H]21 [Compound 48]	1.65 nM
C#Cc1c(F)ccc2cc(N)cc(-c3nc4c5c(nc(OC[C@@]67CCCN6C[C@H](F)C7)nc5c3F)N3[C@H]5COC[C@H]5COC[C@H]3N4C)c12 [Compound 123D]	2.07 nM

System: AsPC-1 cells (K-Ras G12D)
Test: not given
Details: not given

SMILES	IC50
CSc1cccc2cc(O)cc(-c3nc4c5c(nc(OC[C@@]67CCCN6C[C@H](F)C7)nc5c3F)N3CCCOC[C@H]3N4C)c12 [Compound 20]	110 nM
[2H]C([2H])([2H])N1c2nc(-c3cc(N)cc4ccc(F)c(C#C)c34)c(F)c3nc(OC[C@@]45CCCN4C[C@H](F)C5)nc(c23)N2CCCOC[C@H]21 [Compound 48]	26.6 nM
C#Cc1c(F)ccc2cc(N)cc(-c3nc4c5c(nc(OC[C@@]67CCCN6C[C@H](F)C7)nc5c3F)N3CCCOCC3N4)c12 (stereo partly drawn) [Compound 113]	587 nM

Molecular target: GDP-KRAS G12V (Homo sapiens, UniProt P01116, G12V)
Test: biochemical
Details: not given

Sequence of GDP-KRAS G12V (P01116 1-169 isoform P01116-2 G12V): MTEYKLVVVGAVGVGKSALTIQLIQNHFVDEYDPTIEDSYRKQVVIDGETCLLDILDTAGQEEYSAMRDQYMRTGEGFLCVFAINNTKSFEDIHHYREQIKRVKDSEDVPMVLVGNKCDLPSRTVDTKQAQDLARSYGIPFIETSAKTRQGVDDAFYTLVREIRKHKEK

SMILES	IC50
[2H]C([2H])([2H])N1c2nc(-c3cc(N)cc4ccc(F)c(C#C)c34)c(F)c3nc(OC[C@@]45CCCN4C[C@H](F)C5)nc(c23)N2CCCOC[C@H]21 [Compound 48]	0.595 nM
C#Cc1c(F)ccc2cc(N)cc(-c3nc4c5c(nc(OC[C@@]67CCCN6C[C@H](F)C7)nc5c3F)N3CCCOCC3N4)c12 (stereo partly drawn) [Compound 113]	3.81 nM
C#Cc1c(F)ccc2cc(N)cc(-c3nc4c5c(nc(OC[C@@]67CCCN6C[C@H](F)C7)nc5c3F)N3CCCOCC3N4CCC(F)(F)F)c12 (stereo partly drawn) [Compound 104]	17.6 nM

System: AGS cells (K-Ras G12D)
Test: not given
Details: not given

SMILES	IC50
[2H]C([2H])([2H])N1c2nc(-c3cc(N)cc4ccc(F)c(C#C)c34)c(F)c3nc(OC[C@@]45CCCN4C[C@H](F)C5)nc(c23)N2CCCOC[C@H]21 [Compound 48]	3.53 nM
C#Cc1c(F)ccc2cc(N)cc(-c3nc4c5c(nc(OC[C@@]67CCCN6C[C@H](F)C7)nc5c3F)N3CCCOCC3N4)c12 (stereo partly drawn) [Compound 113]	33.6 nM
C#Cc1c(F)ccc2cc(N)cc(-c3nc4c5c(nc(OC[C@@]67CCCN6C[C@H](F)C7)nc5c3F)N3CCCOCC3N4CCC(F)(F)F)c12 (stereo partly drawn) [Compound 104]	485 nM
C#Cc1c(F)ccc2cc(N)cc(-c3nc4c5c(nc(OC[C@@]67CCCN6C[C@H](F)C7)nc5c3F)N3[C@H]5COC[C@H]5COC[C@H]3N4C)c12 [Compound 123D]	2.18 nM

Molecular target: GppNp-KRAS G12D (Homo sapiens, UniProt P01116, G12D)
Test: biochemical
Details: not given

Sequence of GppNp-KRAS G12D (P01116 1-169 isoform P01116-2 G12D): as the sequence (P01116 1-169 isoform P01116-2 G12D) above

SMILES	IC50
[2H]C([2H])([2H])N1c2nc(-c3cc(N)cc4ccc(F)c(C#C)c34)c(F)c3nc(OC[C@@]45CCCN4C[C@H](F)C5)nc(c23)N2CCCOC[C@H]21 [Compound 48]	35.8 nM
C#Cc1c(F)ccc2cc(N)cc(-c3nc4c5c(nc(OC[C@@]67CCCN6C[C@H](F)C7)nc5c3F)N3CCCOCC3N4)c12 (stereo partly drawn) [Compound 113]	623 nM
C#Cc1c(F)ccc2cc(N)cc(-c3nc4c5c(nc(OC[C@@]67CCCN6C[C@H](F)C7)nc5c3F)N3CCCOCC3N4CCC(F)(F)F)c12 (stereo partly drawn) [Compound 104]	> 1000 nM

System: AGS cells (K-Ras G12D)
Test: not given
Details: not given
Remark: another data set of the same source

SMILES	IC50
CSc1cccc2cc(O)cc(-c3nc4c5c(nc(OC[C@@]67CCCN6C[C@H](F)C7)nc5c3F)N3CCCOC[C@H]3N4C)c12 [Compound 20]	22.1 nM
[2H]C([2H])([2H])N1c2nc(-c3cc(N)cc4ccc(F)c(C#C)c34)c(F)c3nc(OC[C@@]45CCCN4C[C@H](F)C5)nc(c23)N2CCCOC[C@H]21 [Compound 48]	3.44 nM
C#Cc1c(F)ccc2cc(N)cc(-c3nc4c5c(nc(OC[C@@]67CCCN6C[C@H](F)C7)nc5c3F)N3CCCOCC3N4)c12 (stereo partly drawn) [Compound 113]	35.1 nM

Molecular target: GppNp-KRAS G12V (Homo sapiens, UniProt P01116, G12V)
Test: biochemical
Details: not given

Sequence of GppNp-KRAS G12V (P01116 1-169 isoform P01116-2 G12V): as the sequence (P01116 1-169 isoform P01116-2 G12V) above

SMILES	IC50
[2H]C([2H])([2H])N1c2nc(-c3cc(N)cc4ccc(F)c(C#C)c34)c(F)c3nc(OC[C@@]45CCCN4C[C@H](F)C5)nc(c23)N2CCCOC[C@H]21 [Compound 48]	55.4 nM
C#Cc1c(F)ccc2cc(N)cc(-c3nc4c5c(nc(OC[C@@]67CCCN6C[C@H](F)C7)nc5c3F)N3CCCOCC3N4)c12 (stereo partly drawn) [Compound 113]	513 nM
C#Cc1c(F)ccc2cc(N)cc(-c3nc4c5c(nc(OC[C@@]67CCCN6C[C@H](F)C7)nc5c3F)N3CCCOCC3N4CCC(F)(F)F)c12 (stereo partly drawn) [Compound 104]	> 1000 nM

System: SW620 cells (K-Ras G12V)
Test: not given
Details: not given

SMILES	IC50
CSc1cccc2cc(O)cc(-c3nc4c5c(nc(OC[C@@]67CCCN6C[C@H](F)C7)nc5c3F)N3CCCOC[C@H]3N4C)c12 [Compound 20]	24.4 nM
[2H]C([2H])([2H])N1c2nc(-c3cc(N)cc4ccc(F)c(C#C)c34)c(F)c3nc(OC[C@@]45CCCN4C[C@H](F)C5)nc(c23)N2CCCOC[C@H]21 [Compound 48]	2.55 nM
C#Cc1c(F)ccc2cc(N)cc(-c3nc4c5c(nc(OC[C@@]67CCCN6C[C@H](F)C7)nc5c3F)N3CCCOCC3N4)c12 (stereo partly drawn) [Compound 113]	45.4 nM
